ChEMBL document CHEMBL3785084, “Rational modification of the lead molecule: Enhancement in the anticancer and dihydrofolate reductase inhibitory activity” (Bioorg Med Chem Lett, 2016)

Legend:
[1] = cells; conditions: Homo sapiens, UACC-257, 48 h; for CC50: read-out: LC50
Description: Cytotoxicity against human UACC257 cells after 48 hrs by sulforhodamine B assay

[2] = cells; conditions: Homo sapiens, HL-60, 48 h; for CC50: read-out: LC50
Description: Cytotoxicity against human HL-60(TB) cells after 48 hrs by sulforhodamine B assay

[3] = Cytotoxicity against human SNB19 cells assessed as cell growth at 10^-5 M after 48 hrs by sulforhodamine B assay; type: functional; conditions: SNB-19, 48 h, read-out: Activity
[4] = Cytotoxicity against human PC3 cells assessed as cell growth at 10^-5 M after 48 hrs by sulforhodamine B assay; type: functional; conditions: PC-3, 48 h, read-out: Activity
[5] = Cytotoxicity against human OVCAR3 cells assessed as cell growth at 10^-5 M after 48 hrs by sulforhodamine B assay; type: functional; conditions: OVCAR-3, 48 h, read-out: Activity
[6] = tested on: HT-29; assay: Cytotoxicity against human HT-29 cells assessed as cell growth at 10^-5 M after 48 hrs by sulforhodamine B assay; type: functional; conditions: HT-29, 48 h, read-out: Activity
[7] = tested on: Malme-3M; assay: Cytotoxicity against human MALME-3M cells assessed as cell growth at 10^-5 M after 48 hrs by sulforhodamine B assay; type: functional; conditions: read-out: Activity
[8] = tested on: MDA-MB-468; assay: Cytotoxicity against human MDA-MB-468 cells assessed as cell growth at 10^-5 M after 48 hrs by sulforhodamine B assay; type: functional; conditions: MDA-MB-468, 48 h, read-out: Activity
[9] = cells; conditions: Homo sapiens, SF-268, 48 h; for CC50: read-out: LC50
Description: Cytotoxicity against human SF268 cells after 48 hrs by sulforhodamine B assay

[10] = Cytotoxicity against human DU145 cells assessed as cell growth at 10^-5 M after 48 hrs by sulforhodamine B assay; type: functional; conditions: DU-145, 48 h, read-out: Activity
[11] = tested on: SK-MEL-5; assay: cells; conditions: Homo sapiens, SK-MEL-5, 48 h; for CC50: read-out: LC50
Description: Cytotoxicity against human SK-MEL-5 cells after 48 hrs by sulforhodamine B assay

[12] = cells; conditions: Homo sapiens, IGROV-1, 48 h; for CC50: read-out: LC50
Description: Cytotoxicity against human IGROV1 cells after 48 hrs by sulforhodamine B assay

[13] = tested on: KM12; assay: cells; conditions: Homo sapiens, KM12, 48 h
Description: Cytotoxicity against human KM12 cells after 48 hrs by sulforhodamine B assay

[14] = cells; conditions: Homo sapiens, COLO 205, 48 h
Description: Cytotoxicity against human COLO205 cells after 48 hrs by sulforhodamine B assay

[15] = cells; conditions: Homo sapiens, HOP-92, 48 h; for CC50: read-out: LC50
Description: Cytotoxicity against human HOP92 cells after 48 hrs by sulforhodamine B assay

[16] = cells; conditions: Homo sapiens, SNB-75, 48 h; for CC50: read-out: LC50
Description: Cytotoxicity against human SNB75 cells after 48 hrs by sulforhodamine B assay

[17] = Cytotoxicity against human Hs 578T cells assessed as cell growth at 10^-5 M after 48 hrs by sulforhodamine B assay; type: functional; conditions: read-out: Activity
[18] = Cytotoxicity against human Hs 578T cells after 48 hrs by sulforhodamine B assay; type: functional; conditions: for CC50: read-out: LC50 (the source's name)
[19] = tested on: NCI-H522; assay: cells; conditions: Homo sapiens, NCI-H522, 48 h
Description: Cytotoxicity against human NCI-H522 cells after 48 hrs by sulforhodamine B assay

[20] = tested on: SK-MEL-2; assay: Cytotoxicity against human SK-MEL-2 cells assessed as cell growth at 10^-5 M after 48 hrs by sulforhodamine B assay; type: functional; conditions: SK-MEL-2, 48 h, read-out: Activity
[21] = tested on: NCI-H226; assay: cells; conditions: Homo sapiens, NCI-H226, 48 h; for CC50: read-out: LC50
Description: Cytotoxicity against human NCI-H226 cells after 48 hrs by sulforhodamine B assay

[22] = Cytotoxicity against human IGROV1 cells assessed as cell growth at 10^-5 M after 48 hrs by sulforhodamine B assay; type: functional; conditions: IGROV-1, 48 h, read-out: Activity
[23] = Cytotoxicity against human OVCAR4 cells assessed as cell growth at 10^-5 M after 48 hrs by sulforhodamine B assay; type: functional; conditions: OVCAR-4, 48 h, read-out: Activity
[24] = Cytotoxicity against human UACC62 cells assessed as cell growth at 10^-5 M after 48 hrs by sulforhodamine B assay; type: functional; conditions: UACC-62, 48 h, read-out: Activity
[25] = tested on: KM12; assay: Cytotoxicity against human KM12 cells assessed as cell growth at 10^-5 M after 48 hrs by sulforhodamine B assay; type: functional; conditions: KM12, 48 h, read-out: Activity
[26] = tested on: A498; assay: Cytotoxicity against human A498 cells assessed as cell growth at 10^-5 M after 48 hrs by sulforhodamine B assay; type: functional; conditions: A498, 48 h, read-out: Activity
[27] = Cytotoxicity against human HCT116 cells assessed as cell growth at 10^-5 M after 48 hrs by sulforhodamine B assay; type: functional; conditions: HCT-116, 48 h, read-out: Activity
[28] = cells; conditions: Homo sapiens, HCT-15, 48 h; for CC50: read-out: LC50
Description: Cytotoxicity against human HCT15 cells after 48 hrs by sulforhodamine B assay

[29] = Cytotoxicity against human OVCAR5 cells assessed as cell growth at 10^-5 M after 48 hrs by sulforhodamine B assay; type: functional; conditions: OVCAR-5, 48 h, read-out: Activity
[30] = Cytotoxicity against human UACC257 cells assessed as cell growth at 10^-5 M after 48 hrs by sulforhodamine B assay; type: functional; conditions: UACC-257, 48 h, read-out: Activity
[31] = Cytotoxicity against human SF268 cells assessed as cell growth at 10^-5 M after 48 hrs by sulforhodamine B assay; type: functional; conditions: SF-268, 48 h, read-out: Activity
[32] = Cytotoxicity against human BT549 cells assessed as cell growth at 10^-5 M after 48 hrs by sulforhodamine B assay; type: functional; conditions: BT-549, 48 h, read-out: Activity
[33] = tested on: 786-0; assay: cells; conditions: Homo sapiens, 786-0, 48 h; for CC50: read-out: LC50
Description: Cytotoxicity against human 786-0 cells after 48 hrs by sulforhodamine B assay

[34] = Cytotoxicity against human TK10 cells assessed as cell growth at 10^-5 M after 48 hrs by sulforhodamine B assay; type: functional; conditions: TK-10, 48 h, read-out: Activity
[35] = tested on: SN12C; assay: cells; conditions: Homo sapiens, 48 h; for CC50: read-out: LC50
Description: Cytotoxicity against human SN12C cells after 48 hrs by sulforhodamine B assay

[36] = tested on: MCF7; assay: Cytotoxicity against human MCF7 cells assessed as cell growth at 10^-5 M after 48 hrs by sulforhodamine B assay; type: functional; conditions: MCF7, 48 h, read-out: Activity
[37] = tested on: A549; assay: cells; conditions: Homo sapiens, A549, 48 h; for CC50: read-out: LC50
Description: Cytotoxicity against human A549 cells after 48 hrs by sulforhodamine B assay

COc1cc(/C=C2\C(=O)Nc3ccccc32)cc(OC)c1O
GI50 [1]: 1800 nM
TGI [1]: 18.6 µM
CC50 [1]: 67.6 µM
GI50 [2]: 2800 nM
TGI [2]: 11.2 µM
CC50 [2]: > 100 µM
growth at 10 µM [3]: 83.7%
growth at 10 µM [4]: 51.2%
growth at 10 µM [5]: 46.9%
growth at 10 µM [6]: 75.7%
growth at 10 µM [7]: 118%
growth at 10 µM [8]: 20.4%
GI50 [9]: 4300 nM
TGI [9]: 28.8 µM
CC50 [9]: > 100 µM
growth at 10 µM [10]: 92.5%
GI50 [11]: 2900 nM
TGI [11]: 10.7 µM
CC50 [11]: 33.1 µM
GI50 [12]: 3700 nM
TGI [12]: 20.4 µM
CC50 [12]: 85.1 µM
GI50 [13]: 2500 nM
TGI [13]: 11.5 µM
CC50 ([13]; read-out: LC50): 36.3 µM
GI50 [14]: 12.3 µM
TGI [14]: 26.9 µM
CC50 ([14]; read-out: LC50): 58.8 µM
GI50 [15]: 4200 nM
TGI [15]: 48.9 µM
CC50 [15]: > 100 µM
GI50 [16]: 11.7 µM
TGI [16]: 8.5 µM
CC50 [16]: > 100 µM
growth at 10 µM [17]: 18.4%
GI50 [18]: 1800 nM
TGI [18]: 6.1 µM
CC50 [18]: > 100 µM
GI50 [19]: 1700 nM
TGI [19]: 5.1 µM
CC50 ([19]; read-out: LC50): 22.9 µM
growth at 10 µM [20]: 50.4%
GI50 [21]: 17.7 µM
TGI [21]: > 100 µM
CC50 [21]: > 100 µM
growth at 10 µM [22]: 70.2%
growth at 10 µM [23]: 89.1%
growth at 10 µM [24]: 72.1%
growth at 10 µM [25]: 32.2%
growth at 10 µM [26]: 52.5%
growth at 10 µM [27]: 46.4%
GI50 [28]: 3200 nM
TGI [28]: 15.1 µM
CC50 [28]: 64.5 µM
growth at 10 µM [29]: 112%
growth at 10 µM [30]: 62.6%
growth at 10 µM [31]: 78.3%
growth at 10 µM [32]: 74.8%
GI50 [33]: 7.1 µM
TGI [33]: 27.5 µM
CC50 [33]: 91.2 µM
growth at 10 µM [34]: 88.5%
GI50 [35]: 3600 nM
TGI [35]: 23.4 µM
CC50 [35]: > 100 µM
growth at 10 µM [36]: 30.8%
GI50 [37]: 4.9 µM
TGI [37]: 47.8 µM
CC50 [37]: > 100 µM

O=C1Nc2ccccc2/C1=C/c1cn(CC(O)Cn2cc(/C=C3\C(=O)Nc4ccccc43)c3ccccc32)c2ccccc12 (stereo not given)
GI50 [1]: 2300 nM
TGI [1]: 4.4 µM
CC50 [1]: 8.3 µM
GI50 [2]: 2900 nM
TGI [2]: 10.9 µM
CC50 [2]: 57.5 µM
growth at 10 µM [3]: -43%
growth at 10 µM [4]: -86.3%
growth at 10 µM [5]: -85.1%
growth at 10 µM [6]: -20.2%
growth at 10 µM [7]: -76%
growth at 10 µM [8]: -84.8%
GI50 [9]: 1700 nM
TGI [9]: 3.9 µM
CC50 [9]: 8.7 µM
growth at 10 µM [10]: -90.5%
GI50 [11]: 1900 nM
TGI [11]: 3.8 µM
CC50 [11]: 7.3 µM
GI50 [12]: 470 nM
TGI [12]: 1.9 µM
CC50 [12]: 5.3 µM
GI50 [13]: 1400 nM
TGI [13]: 3.3 µM
GI50 [14]: 1.6 µM
TGI [14]: 3.6 µM
GI50 [15]: 1800 nM
TGI [15]: 4.1 µM
CC50 [15]: 9.5 µM
GI50 [16]: 1.3 µM
TGI [16]: 2.9 µM
CC50 [16]: 6.4 µM
growth at 10 µM [17]: -22.2%
GI50 [18]: 2400 nM
TGI [18]: 7.8 µM
CC50 [18]: > 100 µM
GI50 [19]: 1600 nM
TGI [19]: 3.5 µM
growth at 10 µM [20]: -57.6%
GI50 [21]: 1.6 µM
TGI [21]: 3.5 µM
CC50 [21]: 7.5 µM
growth at 10 µM [22]: -67.4%
growth at 10 µM [23]: -51.7%
growth at 10 µM [24]: -75.2%
growth at 10 µM [25]: -80.9%
growth at 10 µM [26]: -73.2%
growth at 10 µM [27]: -64.2%
GI50 [28]: 1700 nM
TGI [28]: 3.7 µM
CC50 [28]: 7.7 µM
growth at 10 µM [29]: -34.1%
growth at 10 µM [30]: -51%
growth at 10 µM [31]: -62%
growth at 10 µM [32]: -55.3%
GI50 [33]: 1.6 µM
TGI [33]: 3.2 µM
CC50 [33]: 6.1 µM
growth at 10 µM [34]: -15.1%
GI50 [35]: 1500 nM
TGI [35]: 3.1 µM
CC50 [35]: 6.5 µM
growth at 10 µM [36]: -67.5%
GI50 [37]: 1.5 µM
TGI [37]: 3.2 µM
CC50 [37]: 6.8 µM
